Values joined by “and” are separate entries in the source; they are usually repeats but may differ in a detail not shown here. Identical values can stand only once.
Tested on: A375 multi-cell spheroids with HUVEC/MSC, viability
Test: Anticancer human tumor A375 cell line growth inhibition [GQUAD];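 note: spheroids exposed to compounds for seven days before readout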
Settings: for viability, T/C: stronger effect = lower value
Description: DNA G-quadruplex Stabilizer Agents in Combinations in Complex Spheroids
A high-throughput screen of multi-cell type tumor spheroids was designed to identify active combinations of DNA G-quadruplex stabilizer agents and targeted small molecules. Complex spheroids include a stromal component modeled by human endothelial cells (HUVEC) and fibroblasts modeled by human mesenchymal stem cells (MSCs). The concentration ranges selected for each drug and investigational agent were based upon clinically achievable concentrations if the clinical Cmax of the agent was known.
Compounds. The drugs and investigational agents: pidnarulex (CX-5461; NSC782164), APTO-253 (NSC789042), BRACO-19 (NSC847499), peposertib (NSC802822), ceralasertib (NSC780249), elimusertib (NSC800525), camonsertib (NSC841442), AZD-1390 (NSC803789), olaparib (NSC753686), talazoparib (NSC767125), ART-558 (NSC835418), sotorasib (NSC818433), MRTX-1133 (NSC836407), SN-38 (NSC673596), topotecan (NSC609699), etoposide (NSC141540), doxorubicin (NSC123127), gemcitabine (NSC613327), 5-fluorouracil (NSC19893), paclitaxel (NSC125973), vemurafenib (NSC761431), panobinostat (NSC761190), R-306465 (JNJ-16241199; NSC773264), adavosertib (NSC754352), TP-3654 (NSC805149), carboplatin (NSC241240), KSQ-4279 (NSC840948), and staurosporine (NSC755774) were obtained from the National Cancer Institute (NCI) Developmental Therapeutics Program Chemical Repository (34). The FDA-approved anticancer drug set is available from the NCI Developmental Therapeutics Program. […] The stock solutions were prepared in dimethyl sulfoxide (DMSO, Sigma-Aldrich, St. Louis, MO, cat. D2650) at 800-fold the tested concentration and stored at -70 degrees C prior to their use. All drugs and investigational agents were tested over a range starting from a high concentration at or near the clinical Cmax and decreasing in half-log increments. If the clinical Cmax for an agent had not been determined, the highest concentration tested was 10 microM.
2.3 Cell Culture. All cells were maintained in an incubator at 37 degrees C and 5% CO2 with 95% humidity. The PDC lines were cultured according to standard operating procedures established by the NCI PDMR. All PDCs were thawed and cultured in Matrigel-coated flasks prepared with a working solution of 1X Ham's F-12 nutrient mix, without supplementation (Invitrogen, cat. 11765054), 100 U/mL penicillin-streptomycin (Invitrogen, cat. 15140122), and 2.5% Matrigel (Corning Inc., cat. 354248) for the first three passages. The 857933-349-R-J2-PDC line was cultured in 6C/Colon 1B media, which includes advanced DMEM/F-12 (Thermo Fisher Scientific, cat. 12634028), 10 mM HEPES (Thermo Fisher Scientific, cat. 15630080), 1X GlutaMAX supplement (Thermo Fisher Scientific, cat. 35050061), 0.1 mg/mL primocin (InvivoGen, cat. ant-pm-2), 10% defined fetal bovine serum, heat inactivated (HyClone Laboratories Inc., cat. SH30070.03HI), 50% L-WRN conditioned media (ATCC, cat. CRL-3276), 1.25 mM N-Acetyl-L-cysteine (Sigma-Aldrich, cat. A9165), 10 mM nicotinamide (Sigma-Aldrich, cat. N0636), 1X B-27 supplement (Thermo Fisher Scientific, cat. 17504044), 1X N-2 supplement (Thermo Fisher Scientific, cat. 17502048), 10 microM Y-27632 dihydrochloride (Tocris Bioscience, cat. 1254), and 50 ng/mL human EGF recombinant protein (Thermo Fisher Scientific, cat. PHG0311). The 485176-168-R4-J1-PDC line was cultured in Panc media, which includes all 6C/Colon 1B media components plus 100 ng/mL human FGF-10 (Thermo Fisher Scientific, cat. 100-26), 500 nM SB-431542 (Selleckchem, cat. S1067), and gastrin (Tocris, cat. 3006).
[…]

[1] = curve of first compound, second compound 0.0316 µM
[2] = curve of first compound, second compound 0.1 µM
[3] = curve of first compound, second compound 0.316 µM
[4] = curve of first compound, second compound 1 µM
[5] = curve of first compound, second compound 3.16 µM
[6] = curve of first compound, second compound 10 µM
[7] = second compound 0.0316 µM, first compound 0.0316 µM
[8] = second compound 0.0316 µM, first compound 0.1 µM
[9] = second compound 0.0316 µM, first compound 0.316 µM
[10] = second compound 0.0316 µM, first compound 1 µM
[11] = second compound 0.0316 µM, first compound 3.16 µM
[12] = second compound 0.0316 µM, first compound 10 µM
[13] = second compound 0.1 µM, first compound 0.0316 µM
[14] = second compound 0.1 µM, first compound 0.1 µM
[15] = second compound 0.1 µM, first compound 0.316 µM
[16] = second compound 0.1 µM, first compound 1 µM
[17] = second compound 0.1 µM, first compound 3.16 µM
[18] = second compound 0.1 µM, first compound 10 µM
[19] = second compound 0.316 µM, first compound 0.0316 µM
[20] = second compound 0.316 µM, first compound 0.1 µM
[21] = second compound 0.316 µM, first compound 0.316 µM
[22] = second compound 0.316 µM, first compound 1 µM
[23] = second compound 0.316 µM, first compound 3.16 µM
[24] = second compound 0.316 µM, first compound 10 µM
[25] = second compound 1 µM, first compound 0.0316 µM
[26] = second compound 1 µM, first compound 0.1 µM
[27] = second compound 1 µM, first compound 0.316 µM
[28] = second compound 1 µM, first compound 1 µM
[29] = second compound 1 µM, first compound 3.16 µM
[30] = second compound 1 µM, first compound 10 µM
[31] = second compound 3.16 µM, first compound 0.0316 µM
[32] = second compound 3.16 µM, first compound 0.1 µM
[33] = second compound 3.16 µM, first compound 0.316 µM
[34] = second compound 3.16 µM, first compound 1 µM
[35] = second compound 3.16 µM, first compound 3.16 µM
[36] = second compound 3.16 µM, first compound 10 µM
[37] = second compound 10 µM, first compound 0.0316 µM
[38] = second compound 10 µM, first compound 0.1 µM
[39] = second compound 10 µM, first compound 0.316 µM
[40] = second compound 10 µM, first compound 1 µM
[41] = second compound 10 µM, first compound 3.16 µM
[42] = second compound 10 µM, first compound 10 µM

SMILES: O=c1[nH]cc(F)c(=O)[nH]1 + Cc1cnc(CNC(=O)c2c(=O)c3ccc(N4CCCN(C)CC4)nc3n3c2sc2ccccc23)cn1
- IC50 [1]: > 10000 nM
- IC50 [2]: > 10000 nM
- IC50 [3]: 675 nM
- IC50 [4]: < 31.6 nM
- IC50 [5]: < 31.6 nM
- IC50 [6]: < 31.6 nM
- viability, T/C [7]: 98.5%
- viability, T/C [8]: 105%
- viability, T/C [9]: 92.4%
- viability, T/C [10]: 107%
- viability, T/C [11]: 112%
- viability, T/C [12]: 96.5%
- viability, T/C [13]: 75.9%
- viability, T/C [14]: 67.8%
- viability, T/C [15]: 82.8%
- viability, T/C [16]: 81.4%
- viability, T/C [17]: 88.7%
- viability, T/C [18]: 63.1%
- viability, T/C [19]: 56.8%
- viability, T/C [20]: 51.4%
- viability, T/C [21]: 50.7%
- viability, T/C [22]: 49.4%
- viability, T/C [23]: 48.6%
- viability, T/C [24]: 45.3%
- viability, T/C [25]: 44.9%
- viability, T/C [26]: 41.3%
- viability, T/C [27]: 47.6%
- viability, T/C [28]: 51.7%
- viability, T/C [29]: 45.8%
- viability, T/C [30]: 37.7%
- viability, T/C [31]: 40.3%
- viability, T/C [32]: 33.4%
- viability, T/C [33]: 34.6%
- viability, T/C [34]: 36%
- viability, T/C [35]: 39%
- viability, T/C [36]: 30.7%
- viability, T/C [37]: 37.3%
- viability, T/C [38]: 30%
- viability, T/C [39]: 32.6%
- viability, T/C [40]: 33.9%
- viability, T/C [41]: 30.3%
- viability, T/C [42]: 29.4%

SMILES: O=C(NO)c1cnc(N2CCN(S(=O)(=O)c3ccc4ccccc4c3)CC2)nc1 + Cc1[nH]c2ccc(F)cc2c1-c1nc2c3cccnc3c3ncccc3c2[nH]1
- IC50 [1]: 203 nM
- IC50 [2]: 445 nM
- IC50 [3]: 507 nM
- IC50 [4]: 447 nM
- IC50 [5]: 202 nM
- IC50 [6]: 251 nM
- viability, T/C [7]: 104%
- viability, T/C [8]: 113%
- viability, T/C [9]: 13.4%
- viability, T/C [10]: 0.27%
- viability, T/C [11]: 0.25%
- viability, T/C [12]: 0.27%
- viability, T/C [13]: 105%
- viability, T/C [14]: 119%
- viability, T/C [15]: 71%
- viability, T/C [16]: 0.27%
- viability, T/C [17]: 0.8%
- viability, T/C [18]: 0.26%
- viability, T/C [19]: 106%
- viability, T/C [20]: 112%
- viability, T/C [21]: 84.5%
- viability, T/C [22]: 0.24%
- viability, T/C [23]: 0.19%
- viability, T/C [24]: 0.23%
- viability, T/C [25]: 109%
- viability, T/C [26]: 106%
- viability, T/C [27]: 71.3%
- viability, T/C [28]: 0.21%
- viability, T/C [29]: 0.15%
- viability, T/C [30]: 0.23%
- viability, T/C [31]: 96.3%
- viability, T/C [32]: 89.5%
- viability, T/C [33]: 24.7%
- viability, T/C [34]: 0.19%
- viability, T/C [35]: 0.16%
- viability, T/C [36]: 0.22%
- viability, T/C [37]: 111%
- viability, T/C [38]: 105%
- viability, T/C [39]: 36.2%
- viability, T/C [40]: 0.21%
- viability, T/C [41]: 0.21%
- viability, T/C [42]: 0.25%

SMILES: CC(C)n1c(=O)n(C)c2cnc3cc(F)c(-c4ccc(OCCCN5CCCCC5)nc4)cc3c21
- viability, T/C (compound 0.0316 µM): 103% and 99.6% and 97.1%
- viability, T/C (compound 0.1 µM): 92.8% and 105% and 111%
- viability, T/C (compound 0.316 µM): 96.4% and 103% and 99.7%
- viability, T/C (compound 1 µM): 97.4% and 108% and 98.7%
- viability, T/C (compound 3.16 µM): 102% and 114% and 109%
- viability, T/C (compound 10 µM): 94.5% and 85.4% and 97.5%
- IC50 (curve of compound): > 10000 nM
